This note sets out measurements from patent US20080207614A1, “QUINAZOLINE DERIVATIVES FOR THE TREATMENT AND PREVENTION OF DIABETES AND OBESITY” (SK CHEMICALS CO., LTD., priority 2004, published 2008).

The subject of experiment [1] is C2C12 muscle cells. The experiment in a line: Analysis of glucose absorption (2-deoxyglucose) in differentiated C2C12 muscle cells. It is filed as cell-based. Conditions: test materials 10 μM, times relative to control group. Put shortly: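 Uptake of 0.2 μCi 2-deoxyglucose over 20 min, counted radiometrically in lysed cells. Before tracer, compounds (10 μM) were applied for 30 min to C2C12 cells differentiated 6 days in 1% serum and equilibrated 3 h in 5 mM glucose KRB.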

The subject of experiment [2] is AMPK. Put plainly: Measurement of AMPK activity by Western blot in C2C12 cells. It is filed as cell-based. Further details: key to AMPK activity (degree of phosphorylation of serine-79 and threonine-172): fold increase in threonine-172 phosphorylation; AMPK activity (degree of phosphorylation of serine-79): unit not given here. Conditions: 10 μM for 50 minutes; for AMPK activity (degree of phosphorylation of serine-79 and threonine-172): no superscript: Western blot of serine-79 and threonine-172 phosphorylation; for AMPK activity (class: degree of phosphorylation of threonine-172): strong/mild/weak. Put shortly: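 Western blot readout of AMPK Thr-172 and ACC Ser-79 phosphorylation, normalised against ERK, served as the activity measure. Cells were C2C12 after differentiation, treated 50 minutes with 10 μM test material. Grading by Thr-172 increase: ≥3-fold strong, 1-3-fold mild, <1-fold weak.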

`c1ccc2c(NCc3ccc4c(c3)OCO4)nc(N3CCCC3)nc2c1` [Compound 307, Benzo[1,3]dioxol-5-ylmethyl-(2-pyrrolidino-1-ylquinazolino-4-yl)-amine] showed a Glucose absorption in experiment [1] of 0.8. In addition, the “AMPK activity (degree of phosphorylation of serine-79 and threonine-172)” value in experiment [2] was 2.0.
For `CC(C)c1nc(NCCc2cccc(F)c2)c2ccccc2n1` [Compound 184, [2-(3-Fluorophenyl)-ethyl]-(2-isopropylquinazolino-4-yl)-amine], the Glucose absorption in experiment [1] was 3.2. In addition, in experiment [2], the “AMPK activity (degree of phosphorylation of serine-79 and threonine-172)” value is 1.9; the “AMPK activity (class: degree of phosphorylation of threonine-172)” value was “strong (“strong” means that the degree of phosphorylation of threonine-172 increased by 3 times or more)”.
In the same order, the values of `Cc1nc(NCCCCc2ccccc2)c2ccccc2n1` [Compound 168, (2-Methylquinazolino-4-yl)-(4-phenylbutyl)-amine] are 3.6, 8.4 and “strong (“strong” means that the degree of phosphorylation of threonine-172 increased by 3 times or more)”.
`COc1ccc(OC)c(CNc2nc(N3CCCCC3)nc3ccccc23)c1` [Compound 296, (2,5-Dimethoxybenzyl)-(2-piperidino-1-ylquinazolino-4-yl)-amine] yielded a Glucose absorption in experiment [1] of 0.9. Moreover, the “AMPK activity (degree of phosphorylation of serine-79 and threonine-172)” value in experiment [2] came out at 1.0.
For `COc1cccc(CNc2nc(-c3cccs3)nc3ccccc23)c1OC` [Compound 353, (2,3-Dimethoxybenzyl)-(2-thiopenyl-2-ylquinazolino-4-yl)-amine] the same measures were 1.2 and 0.8.
In the case of `Brc1ccc(CCNc2nc(-c3ccccc3)nc3ccccc23)cc1` [Compound 137, [2-(4-Bromophenyl)-ethyl]-(2-phenylquinazolino-4-yl)-amine], the Glucose absorption in experiment [1] is 2.4. Besides, in experiment [2], the “AMPK activity (degree of phosphorylation of serine-79 and threonine-172)” value was found to be 3.1; the “AMPK activity (class: degree of phosphorylation of threonine-172)” value is given as “strong (“strong” means that the degree of phosphorylation of threonine-172 increased by 3 times or more)”.
For `CC(C)(C)c1nc(NCc2ccccc2)c2ccccc2n1` [Compound 187, Benzyl-(2-tert-butylquinazolino-4-yl)-amine] the same measures were 2.4, 0.7 and “mild (“mild” means that the degree of phosphorylation of threonine-172 increased by 1 to 3 times)”.
`COc1ccc(CNc2nc(C(OC)c3ccccc3)nc3ccccc23)c(OC)c1` (stereo not drawn) [Compound 368, (2,4-Dimethoxybenzyl)-[2-(methoxyphenylmethyl)-quinazolino-4-yl]-amine]: the Glucose absorption in experiment [1] was 1.1. The “AMPK activity (degree of phosphorylation of serine-79 and threonine-172)” value in experiment [2] is reported as 5.9.
Turning to `CC(C)Nc1nc(C(Cl)(Cl)Cl)nc2ccccc12` [Compound 2, Isopropyl-(2-trichloromethylquinazolino-4-yl)-amine], the Glucose absorption in experiment [1] is 1.3. In experiment [2] (footnote a: Western blot of serine-79 phosphorylation), the “AMPK activity (degree of phosphorylation of serine-79)” value is 4.2^a.
As to `CC(C)c1nc(NCc2cccc3ccccc23)c2ccccc2n1` [Compound 181, (2-Isopropylquinazolino-4-yl)-naphthaleno-1-ylmethylamine], in experiment [1], the Glucose absorption was 3.1. Moreover, in experiment [2], the “AMPK activity (degree of phosphorylation of serine-79 and threonine-172)” value is on record as 3.1; the “AMPK activity (class: degree of phosphorylation of threonine-172)” value was “strong (“strong” means that the degree of phosphorylation of threonine-172 increased by 3 times or more)”.
In turn, `COc1cc(OC)c(CNc2nc(C3CC3)nc3ccccc23)c(OC)c1` [Compound 392, (2-Cyclopropylquinazolino-4-yl)-(2,4,6-trimethoxybenzyl)-amine] returned a Glucose absorption in experiment [1] of 1.1. Further, the “AMPK activity (degree of phosphorylation of serine-79 and threonine-172)” value in experiment [2] is 2.7.
With `COc1ccccc1CNc1nc(C(C)C)nc2ccccc12` [Compound 321, (2-Isopropylquinazolino-4-yl)-(2-methoxybenzyl)-amine], the Glucose absorption in experiment [1] was 1.2. Besides, the “AMPK activity (degree of phosphorylation of serine-79 and threonine-172)” value in experiment [2] came to 0.9.
As to `COc1cc(CNc2nc(N3CCOCC3)nc3ccccc23)cc(OC)c1` [Compound 305, (3,5-Dimethoxybenzyl)-(2-morpholino-4-ylquinazolino-4-yl)-amine], the Glucose absorption in experiment [1] is reported as 0.8. Besides, the “AMPK activity (degree of phosphorylation of serine-79 and threonine-172)” value in experiment [2] was determined as 2.1.
For `COc1ccc(OC)c(CNc2nc(C(OC)c3ccccc3)nc3ccccc23)c1` (stereo not drawn) [Compound 369, (2,5-Dimethoxybenzyl)-[2-(methoxyphenylmethyl)-quinazolino-4-yl]-amine] the same measures were 1.1 and 4.5.
Turning to `Cc1nc(NCc2ccc3c(c2)OCO3)c2ccccc2n1` [Compound 170, Benzo[1,3]dioxol-5-ylmethyl-(2-methylquinazolino-4-yl)-amine], the Glucose absorption in experiment [1] is 2.4. In experiment [2], the “AMPK activity (degree of phosphorylation of serine-79 and threonine-172)” value is reported as 8.8; the “AMPK activity (class: degree of phosphorylation of threonine-172)” value is reported as “strong (“strong” means that the degree of phosphorylation of threonine-172 increased by 3 times or more)”.
In experiment [1], `COc1ccccc1CNc1nc(Cc2ccccc2)nc2ccccc12` [Compound 328, (2-Benzylquinazolino-4-yl)-(2-methoxybenzyl)-amine] showed a Glucose absorption of 1.4. In addition, in experiment [2], the “AMPK activity (degree of phosphorylation of serine-79 and threonine-172)” value turned out to be 3.8.
`Fc1ccc(F)c(CNc2nc(-c3ccccc3)nc3ccccc23)c1` [Compound 135, (2,5-Difluorobenzyl)-(2-phenylquinazolino-4-yl)-amine] gave a Glucose absorption in experiment [1] of 2.6. For the same molecule, in experiment [2], the “AMPK activity (degree of phosphorylation of serine-79 and threonine-172)” value is 2.0; the “AMPK activity (class: degree of phosphorylation of threonine-172)” value is given as “strong (“strong” means that the degree of phosphorylation of threonine-172 increased by 3 times or more)”.
For `Fc1cccc(CCNc2nc(-c3ccccc3)nc3ccccc23)c1` [Compound 103, [2-(3-Fluorophenyl)-ethyl]-(2-phenylquinazolino-4-yl)-amine] the same measures were 2.2, 2.6 and “strong (“strong” means that the degree of phosphorylation of threonine-172 increased by 3 times or more)”.
As to `CCCc1nc(NCc2cccc(OC)c2)c2ccccc2n1` [Compound 394, (3-Methoxybenzyl)-(2-propylquinazolino-4-yl)-amine], the Glucose absorption in experiment [1] is 1.3. In addition, the “AMPK activity (degree of phosphorylation of serine-79 and threonine-172)” value in experiment [2] was 4.5.
`CCSc1nc(NCCc2ccccc2)c2ccccc2n1` [Compound 29, (2-Ethylsulfanylquinazolino-4-yl)-phenethylamine] showed a Glucose absorption in experiment [1] of 1.6. Moreover, the “AMPK activity (class: degree of phosphorylation of threonine-172)” value in experiment [2] is “mild (“mild” means that the degree of phosphorylation of threonine-172 increased by 1 to 3 times)”.
For the molecule `c1ccc(-c2nc(NC3CC3)c3ccccc3n2)cc1` [Compound 110, Cyclopropyl-(2-phenylquinazolino-4-yl)-amine], the Glucose absorption in experiment [1] came out at 2.0. Also, in experiment [2], the “AMPK activity (degree of phosphorylation of serine-79 and threonine-172)” value is recorded as 1.6; the “AMPK activity (class: degree of phosphorylation of threonine-172)” value was “strong (“strong” means that the degree of phosphorylation of threonine-172 increased by 3 times or more)”.
Regarding `COc1ccccc1CNc1nc(C2CC2)nc2ccccc12` [Compound 382, (2-Cyclopropylquinazolino-4-yl)-(2-methoxybenzyl)-amine], the Glucose absorption in experiment [1] is recorded as 1.2. For the same molecule, the “AMPK activity (degree of phosphorylation of serine-79 and threonine-172)” value in experiment [2] is on record as 2.2.
In experiment [1], `COc1cc(OC)c(CNc2nc(C(C)C)nc3ccccc23)c(OC)c1` [Compound 327, (2-Isopropylquinazolino-4-yl)-(2,4,6-trimethoxybenzyl)-amine] had a Glucose absorption of 1.3. The “AMPK activity (degree of phosphorylation of serine-79 and threonine-172)” value in experiment [2] is on record as 4.4.
`COc1cc(CNc2ncnc3ccccc23)cc(OC)c1` [Compound 409, (3,5-Dimethoxybenzyl)-quinazolino-4-ylamine] registered a Glucose absorption in experiment [1] of 1.6. Moreover, the “AMPK activity (degree of phosphorylation of serine-79 and threonine-172)” value in experiment [2] worked out at 3.3.
As to `FC(F)(F)c1cccc(CNc2nc(-c3ccccn3)nc3ccccc23)c1` [Compound 226, (2-Pyridino-2-ylquinazolino-4-yl)-(3-trifluoromethylbenzyl)-amine], the Glucose absorption in experiment [1] came to 1.9. For the same molecule, in experiment [2], the “AMPK activity (degree of phosphorylation of serine-79 and threonine-172)” value was 4.3; the “AMPK activity (class: degree of phosphorylation of threonine-172)” value is listed as “strong (“strong” means that the degree of phosphorylation of threonine-172 increased by 3 times or more)”.
Consider `COc1ccc(CNc2nc(-c3cccs3)nc3ccccc23)cc1OC` [Compound 355, (3,4-Dimethoxybenzyl)-(2-thiopenyl-2-ylquinazolino-4-yl)-amine], for which the Glucose absorption in experiment [1] is reported as 1.2. Also, the “AMPK activity (degree of phosphorylation of serine-79 and threonine-172)” value in experiment [2] came out at 1.1.
`COc1ccc(CNc2nc(N3CCN(C)CC3)nc3ccccc23)cc1OC` [Compound 302, (3,4-Dimethoxybenzyl)-[2-(4-methylpiperazino-1-yl)-quinazolino-4-yl]-amine]: the Glucose absorption in experiment [1] was 0.7. For the same molecule, the “AMPK activity (degree of phosphorylation of serine-79 and threonine-172)” value in experiment [2] was found to be 1.2.
For `COc1ccc(CNc2nc(N3CCCC3)nc3ccccc23)c(OC)c1` [Compound 291, (2,4-Dimethoxybenzyl)-(2-pyrrolidino-1-ylquinazolino-4-yl)-amine] the same measures were 0.8 and 1.5.
